From patent US5910509A, “Antimicrobial agent for agriculture” (priority 1996, dated 1999)
Where two headings read alike, the source gives them in different places.

Tests used:
[1] = test system: Fungal cells; assay: Disk diffusion assay for antimicrobial activity; type: cell-based; conditions: 37° C., 24 hours; for zone appearance (clear = fungicidal, hazy = fungistatic): disk diffusion; for zone of growth inhibition diameter: positive control disks 2.5 and 10 μg; for zone of inhibition at 100 µg/disc: 100 μg per 6 mm disk, Sabouraud Dextrose Agar, read-out: zone of growth inhibition diameter
Protocol: (§1) Fungal cells were grown overnight from a single colony in 2-5 ml Sabouraud Dextrose Broth at 37° C. 1-5×10^6 were spread onto Sabouraud Dextrose Agar plates (Difco, Detroit, Mich.). Sterile 6 mm filter disks were evenly spaced with at least about 22 mm separation on the plates. To each disk, 100 μg of a compound to be tested was applied in 5-10 μl DMSO. On each plate, two disks containing 2.5 and 10 μg, respectively, of Amphotericin B (Sigma) and two disks containing 2.5 and 10 μg, respectively, of cerulenin (Sigma) were used as positive controls. A disk containing only DMSO served as the negative control. The plates were incubated at 37° C. for 24 hours and the zone of growth inhibition about each disk was visually examined and measured. Compound A and compound B typically produced clear zones of 8-12 mm diameter. Amphotericin B typically produced a clear zone of 8-10 mm diameter. Cerulenin typically produced a hazy zone of 20-25 mm diameter. A clear zone is indicative of fungicidal activity, while a hazy zone is indicative of fungistatic activity.

[2] = test system: C. albicans strain ATCC 10231; assay: Murine systemic model of candidiasis; type: in vivo, mice; conditions: for Deaths Each Day Post Inoculation: 10 mg/kg IP
Protocol: In vivo activity was determined using a murine systemic model of candidiasis. Groups of 5 to 10 mice were inoculated IV with 1-2×10^7 cells of C. albicans strain ATCC 10231 (10 times the lethal dose). One hour after inoculation, the candidate antifungal compounds were delivered IP. 10 mg/kg of compound A was injected into each mouse of the compound A treatment group. Two separate treatment groups received 30 and 100 mg/kg, respectively, of compound B. Amphotericin B was injected into a positive control treatment group at 10 mg/kg. All compounds were delivered in phosphate-buffered saline (PBS) and one treatment group received PBS. Twice daily thereafter the mice were observed, the number of dead mice recorded, and the dead mice removed. After nine days, the total mortality over the period was determined.
Using the same methodology, it was determined that the maximal tolerated dose in these mice (i.e., the maximum dose that caused no deaths within 72 hours following IP administration) of compound B was in excess of 200 mg/kg. The mice treated with 2108B or Amphotericin B injected IP in […] of phosphate buffered saline, pH 7.4 had the following treatment profiles: […]

[3] = target: T1, FAS (Candida albicans, UniProt P43098); assay: FAS activity in extracts of treated C. albicans cultures (Example 10); type: cell-based
T1 construct: endogenous in cells; host or cells: Candida albicans strain 4918
Protocol: C. Albicans strain 4918 (available from Dr. Ronald Cihlar, Georgetown University Medical Center, Washington, D.C.) was grown in minimal medium (M63 media available from Difco, Detroit, Mich.) at 37° C. to mid-log phase. 10 μg/ml cerulenin and 25 μg/ml of compound B were added to separate cultures. At 15 minute intervals, 20 ml samples were removed and extracts prepared by mechanical extraction as in Example 1C, except that the ammonium sulfate precipitation step was not applied. The extract was diluted to 1 ml to form a solution containing 0.4M potassium phosphate, pH 7.3, 0.125 μM dithiothreitol, 50 μM acetyl-CoA, 100 μM NADPH. After incubation at 37° C. for 5 minutes, 100 μM malonyl-CoA containing 0.5 μCi [2-^14 C]-malonyl-CoA (Amersham, Arlington Heights, Ill.). After 10 minutes at 37° C., the fatty acid synthesis reaction was terminated by adding 30 μl of 60% perchloric acid (v/v) and 1 ml ethanol. Four volumes of pet. ether were added to each reaction incubation to extract the fatty acids. The relative incorporation of malonyl-CoA into fatty acids was determined by liquid scintillation counting.

[4] = test system: Candida Albicans strain B311A; assay: MIC assay (Example 1B); type: cell-based; conditions: purification fractions, result in words
Protocol: The fractions from the purification were tested for antifungal activity against C. albicans (strain B311A available from Dr. Paul Actor, Temple University and strains ATCC Nos. 10231 and 10261) and C. tropicalis (strain 13803). Fungi were grown in 1× yeast nitrogen broth ("YNB") medium (BBL, Cockeysville, Md.) containing 15 μg/ml aspargine and 100 μg/ml kanamycin. Prior to the assay for antifungal activity, the fungus to be tested for susceptibility was grown overnight from a single colony in 5 ml of medium at 30° C. This overnight culture was diluted 1:10 with fresh medium and grown at 37° C. for 4 hours. A volume of 5 μl of extracts, dissolved in DMSO, was added to each separate well in a series of 96-well plates. 4,000 fungal cells were then added to each plate in 95 μl of medium. The optical densities of the wells were measured and the plates incubated at 37° C. The optical densities were again measured after 24 and 48 hours. Minimum inhibitory concentrations ("MICs") for the extracts were determined using this procedure wherein the extracts were serially diluted in medium prior to mixing with the 4,000 fungal cells.
Using the procedure described in the previous paragraph, it was determined that the MICs for compound A and compound B against Candida Albicans strain B311A grown in YNB medium were 25 μg/ml and 6.25 μg/ml, respectively. […]

[5] = target: T2, FAS from S. cereviseae (Saccharomyces cerevisiae, UniProt P07149+P19097); assay: FAS inhibition assay (Example 1C); type: biochemical, Saccharomyces cerviseae; conditions: result in words
T2 construct: an FAS extract from Saccharomyces cerviseae was prepared; (the yeast cells); host or cells: Fleishmans' freeze dried yeast (Saccharomyces cerevisiae); lysate, 50% ammonium sulfate precipitate, dialyzed
Protocol: To test the compounds for FAS inhibitory activity, an FAS extract from Saccharomyces cerviseae was prepared. Freeze dried yeast (Fleishmans' freeze dried yeast, Specialty Brands, San Francisco, Calif.) 1 g, was hydrated in 5 mls deionized water for 15 minutes at 4° C. Subsequent extraction steps were conducted at a temperature between 4° C. and 10° C., except that in the cell lysis step the temperature may have briefly exceeded these boundaries. The cells were pelleted by centrifugation; the pelleted volume was measured; and the cells were resuspended in 5 vol. (5 mls per ml cell volume) extraction buffer [125 mM KH2PO4, pH 6.6, 1 mM EDTA, 1 mM DTT, 0.7 μg/ml pepstatin (Boehringer Mannheim, Indianapolis, Ind.), 0.2 μg/ml aprotinin (Boehringer Mannheim, Indianapolis, Ind.), 0.2 μg/ml leupeptin (Boehringer Mannheim, Indianapolis, Ind.)]. The cells were again pelleted and resuspended in 2 vol. extraction buffer. […]
105 μl of FAS extract was placed in each well of a polypropylene 96 well plate (Costar Corp. Cambridge, Mass.) and multiple 5 μl dilutions of compound A, compound B or negative control solution were introduced into each of the wells. […] The relative initial reaction rates in each well were measured by measuring the decrease in optical density at 340 nm using a UV Max microtiter plate reader (Molecular Devices, Sunnyvalle, Calif.).

[6] = test system: Candida albicans (strains ATCC 10231 and ATCC 10261); assay: Disk diffusion assay, Candida albicans; type: cell-based
Protocol: as §1

[7] = test system: Candida tropicalis (strain ATCC 13803); assay: Disk diffusion assay, Candida tropicalis; type: cell-based
Protocol: as §1

[8] = test system: Fusarium acuminatum (strains ATCC 32965 and ATCC 32966); assay: Disk diffusion assay, Fusarium acuminatum; type: cell-based
Protocol: as §1

[9] = 0.5 h, read-out: Percent Remaining FAS Activity

T1 sequence (P43098 whole entry): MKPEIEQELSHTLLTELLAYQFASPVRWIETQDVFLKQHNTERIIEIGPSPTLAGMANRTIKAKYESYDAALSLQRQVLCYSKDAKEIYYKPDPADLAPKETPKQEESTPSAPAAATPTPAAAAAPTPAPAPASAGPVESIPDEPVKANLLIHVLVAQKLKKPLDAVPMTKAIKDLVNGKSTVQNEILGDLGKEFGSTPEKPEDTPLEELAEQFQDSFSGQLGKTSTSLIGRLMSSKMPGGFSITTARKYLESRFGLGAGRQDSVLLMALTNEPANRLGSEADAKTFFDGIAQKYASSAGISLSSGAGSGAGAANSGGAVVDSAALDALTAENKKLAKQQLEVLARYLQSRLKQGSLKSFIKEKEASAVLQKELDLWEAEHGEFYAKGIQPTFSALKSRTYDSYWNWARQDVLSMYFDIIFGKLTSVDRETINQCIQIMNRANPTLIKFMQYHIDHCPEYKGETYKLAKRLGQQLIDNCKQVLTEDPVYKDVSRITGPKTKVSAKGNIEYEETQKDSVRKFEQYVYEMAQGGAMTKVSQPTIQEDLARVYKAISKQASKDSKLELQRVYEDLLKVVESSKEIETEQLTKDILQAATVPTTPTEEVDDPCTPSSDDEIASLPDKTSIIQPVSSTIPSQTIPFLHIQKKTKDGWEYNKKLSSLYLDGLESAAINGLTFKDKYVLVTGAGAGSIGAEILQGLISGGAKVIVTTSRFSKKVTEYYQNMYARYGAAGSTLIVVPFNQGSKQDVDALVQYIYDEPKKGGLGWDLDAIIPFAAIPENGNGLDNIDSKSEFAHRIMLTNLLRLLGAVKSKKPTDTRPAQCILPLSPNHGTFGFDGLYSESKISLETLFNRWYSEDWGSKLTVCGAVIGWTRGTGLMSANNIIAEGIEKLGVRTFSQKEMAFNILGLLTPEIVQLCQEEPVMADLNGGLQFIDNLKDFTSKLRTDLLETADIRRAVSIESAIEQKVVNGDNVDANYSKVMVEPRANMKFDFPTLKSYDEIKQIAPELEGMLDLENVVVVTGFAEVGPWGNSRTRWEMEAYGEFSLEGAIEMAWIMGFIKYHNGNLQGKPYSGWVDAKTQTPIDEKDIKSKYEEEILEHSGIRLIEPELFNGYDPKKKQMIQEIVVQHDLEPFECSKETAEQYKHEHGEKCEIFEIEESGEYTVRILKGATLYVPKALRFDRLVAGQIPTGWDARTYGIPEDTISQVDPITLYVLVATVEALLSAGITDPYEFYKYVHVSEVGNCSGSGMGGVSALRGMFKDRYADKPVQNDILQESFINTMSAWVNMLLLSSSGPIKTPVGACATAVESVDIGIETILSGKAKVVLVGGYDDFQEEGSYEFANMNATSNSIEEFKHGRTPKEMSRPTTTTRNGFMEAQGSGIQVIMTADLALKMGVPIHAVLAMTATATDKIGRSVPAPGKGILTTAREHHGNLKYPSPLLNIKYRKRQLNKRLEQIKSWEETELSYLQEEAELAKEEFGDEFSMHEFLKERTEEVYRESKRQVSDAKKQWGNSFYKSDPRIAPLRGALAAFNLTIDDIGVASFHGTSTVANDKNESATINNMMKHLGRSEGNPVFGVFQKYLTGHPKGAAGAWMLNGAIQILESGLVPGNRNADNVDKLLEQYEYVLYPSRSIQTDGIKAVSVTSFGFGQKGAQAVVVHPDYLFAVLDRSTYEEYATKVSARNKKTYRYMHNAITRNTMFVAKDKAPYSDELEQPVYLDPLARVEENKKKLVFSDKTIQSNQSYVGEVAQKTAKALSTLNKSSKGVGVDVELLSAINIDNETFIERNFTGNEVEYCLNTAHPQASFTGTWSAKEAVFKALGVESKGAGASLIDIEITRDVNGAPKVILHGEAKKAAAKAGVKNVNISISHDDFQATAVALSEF
T1 sequence (P34731 whole entry partner): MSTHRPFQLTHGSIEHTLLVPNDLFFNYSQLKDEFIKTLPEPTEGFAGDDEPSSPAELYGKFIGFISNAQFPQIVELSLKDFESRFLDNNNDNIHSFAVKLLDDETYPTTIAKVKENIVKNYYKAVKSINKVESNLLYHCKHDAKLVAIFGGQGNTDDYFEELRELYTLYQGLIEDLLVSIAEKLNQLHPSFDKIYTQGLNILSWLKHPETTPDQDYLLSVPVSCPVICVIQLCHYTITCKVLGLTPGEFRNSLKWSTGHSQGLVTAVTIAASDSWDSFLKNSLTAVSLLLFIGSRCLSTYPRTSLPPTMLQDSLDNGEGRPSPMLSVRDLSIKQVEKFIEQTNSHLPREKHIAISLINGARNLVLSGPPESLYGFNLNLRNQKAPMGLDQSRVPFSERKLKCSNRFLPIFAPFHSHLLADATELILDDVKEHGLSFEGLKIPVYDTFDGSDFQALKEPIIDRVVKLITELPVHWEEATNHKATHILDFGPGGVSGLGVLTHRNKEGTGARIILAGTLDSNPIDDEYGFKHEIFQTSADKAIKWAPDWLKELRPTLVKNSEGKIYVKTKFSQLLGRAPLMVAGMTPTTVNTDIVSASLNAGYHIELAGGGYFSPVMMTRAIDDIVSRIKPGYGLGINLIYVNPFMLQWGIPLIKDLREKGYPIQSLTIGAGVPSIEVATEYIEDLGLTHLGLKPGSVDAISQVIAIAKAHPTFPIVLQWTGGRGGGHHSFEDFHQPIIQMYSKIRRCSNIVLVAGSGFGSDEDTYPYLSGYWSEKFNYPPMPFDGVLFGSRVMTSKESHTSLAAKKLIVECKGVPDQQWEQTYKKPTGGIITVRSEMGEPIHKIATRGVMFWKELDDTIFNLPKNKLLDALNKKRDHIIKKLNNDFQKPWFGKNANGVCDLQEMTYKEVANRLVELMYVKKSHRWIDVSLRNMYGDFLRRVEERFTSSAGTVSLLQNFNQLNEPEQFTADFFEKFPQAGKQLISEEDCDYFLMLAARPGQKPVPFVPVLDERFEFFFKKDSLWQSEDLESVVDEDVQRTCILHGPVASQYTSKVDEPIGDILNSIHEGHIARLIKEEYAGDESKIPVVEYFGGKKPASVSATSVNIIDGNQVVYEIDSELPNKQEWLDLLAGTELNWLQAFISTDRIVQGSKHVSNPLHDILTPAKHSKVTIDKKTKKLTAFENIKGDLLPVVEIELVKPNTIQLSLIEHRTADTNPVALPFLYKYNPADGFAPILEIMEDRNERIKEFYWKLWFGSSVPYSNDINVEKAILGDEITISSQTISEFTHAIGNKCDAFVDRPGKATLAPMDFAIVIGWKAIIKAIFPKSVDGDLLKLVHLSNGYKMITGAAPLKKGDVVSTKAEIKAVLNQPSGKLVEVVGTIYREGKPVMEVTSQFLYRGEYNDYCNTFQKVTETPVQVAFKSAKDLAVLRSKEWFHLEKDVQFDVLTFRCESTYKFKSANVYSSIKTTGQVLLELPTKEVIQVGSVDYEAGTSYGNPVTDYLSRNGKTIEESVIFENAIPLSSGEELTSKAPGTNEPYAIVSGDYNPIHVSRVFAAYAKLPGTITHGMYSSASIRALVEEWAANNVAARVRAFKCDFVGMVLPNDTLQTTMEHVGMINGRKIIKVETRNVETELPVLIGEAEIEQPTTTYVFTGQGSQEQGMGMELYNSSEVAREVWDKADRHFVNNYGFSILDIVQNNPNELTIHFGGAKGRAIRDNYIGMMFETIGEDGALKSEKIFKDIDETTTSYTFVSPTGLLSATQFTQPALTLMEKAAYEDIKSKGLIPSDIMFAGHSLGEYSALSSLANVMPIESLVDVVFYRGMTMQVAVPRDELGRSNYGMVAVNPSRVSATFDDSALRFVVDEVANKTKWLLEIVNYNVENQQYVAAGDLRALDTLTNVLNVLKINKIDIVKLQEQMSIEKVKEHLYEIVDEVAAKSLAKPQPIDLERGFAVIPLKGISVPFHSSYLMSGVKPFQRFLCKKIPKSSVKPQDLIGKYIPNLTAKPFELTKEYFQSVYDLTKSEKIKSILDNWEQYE

| SMILES | zone appearance (clear = fungicidal, hazy = fungistatic) [1] | zone of growth inhibition diameter [1] | activity in the MIC assay of Example 1B [4] | activity in the enzyme inhibition assay of Example 1C [5] | zone of inhibition at 100 µg/disc [1] [mm] | antimicrobial activity [6] | antimicrobial activity [7] | antimicrobial activity [8] | further results |
| --- | --- | --- | --- | --- | --- | --- | --- | --- | --- |
| C[C@@H]1[C@H](O)[C@@H](C)/C=C/C=C/C=C/C=C/C=C/C=C/C=C/[C@H](O[C@@H]2O[C@H](C)[C@@H](O)[C@H](N)[C@@H]2O)C[C@@H]2O[C@](O)(C[C@@H](O)C[C@@H](O)[C@H](O)CC[C@@H](O)C[C@@H](O)CC(=O)O[C@H]1C)C[C@H](O)[C@H]2C(=O)O [Amphotericin B] | clear zone | 8-10 mm | – | – | – | – | – | – | % Survival ([2]; 10 mg/kg IP one hour after inoculation, nine days): 80%; Deaths Each Day Post Inoculation ([2]; day 0): 0; Deaths Each Day Post Inoculation ([2]; day 1): 0; Deaths Each Day Post Inoculation ([2]; day 3): 0; Deaths Each Day Post Inoculation ([2]; day 5): 0; Deaths Each Day Post Inoculation ([2]; day 6): 0; Deaths Each Day Post Inoculation ([2]; day 7): 0; Deaths Each Day Post Inoculation ([2]; day 8): 0; Deaths Each Day Post Inoculation ([2]; day 9): 0 |
| C/C=C/C/C=C/CCC(=O)[C@H]1O[C@H]1C(N)=O [Cerulenin, cerulenin] | hazy zone | 20-25 mm | – | – | – | – | – | – | remaining activity at 10 µg/mL ([3]; 0.25 h, read-out: Percent Remaining FAS Activity): 20%; remaining activity at 10 µg/mL [3, 9]: 12% |
| C/C=C/C=C/C=C/C1=CC2=CC(=O)C(C)(OC(=O)CC(C)O)C(=O)C23OC3O1 (centres unmarked) [Compound A] | clear zones | – | retained activity | retained activity | 8 to 12 | had antimicrobial activity | had antimicrobial activity | had antimicrobial activity | – |
| C/C=C/C=C/C=C/C1=CC2=CC(=O)C(C)(OC(=O)CC(C)O)C(=O)C2=CO1 (centres unmarked) [Compound B] | clear zones | – | retained activity | not directly inhibitory of FAS | 8 to 12 | had antimicrobial activity | had antimicrobial activity | had antimicrobial activity | FAS activity of cell extracts made after exposure [3]: markedly reduced FAS activity; remaining activity at 25 µg/mL [3, 9]: 40% |
| C/C=C/C=C/C=C/C1=CC2=CC(=O)C(C)(OC(=O)CC(O)CC(C)O)C(=O)C23OC3O1 (centres unmarked) [patulodin] | – | – | – | – | 7 | – | – | – | – |
